# Experimental data reported in ChEMBL document CHEMBL5058564, “EUbOPEN Chemogenomics Library 2 (Incucyte)” (2022).
# Tests used:
# Type in all cases: toxicity, cell-based
# Fibroblast = assay: Incucyte cell viability with human fibroblast; conditions: 10 µM, compound concentration 10 uM
# HEK-293T = assay: Incucyte cell viability with HEK293T; conditions: human, 10 µM, compound concentration 10 uM
# U2OS = assay: Incucyte cell viability with U2OS; conditions: human, 10 µM, compound concentration 10 uM
# [1] = 0 h, replicate number 1, timepoint 0 hours
# [2] = 0 h, replicate number 2, timepoint 0 hours
# [3] = 6 h, replicate number 1, timepoint 6 hours
# [4] = 12 h, replicate number 1, timepoint 12 hours
# [5] = 12 h, replicate number 2, timepoint 12 hours
# [6] = 18 h, replicate number 1, timepoint 18 hours
# [7] = 18 h, replicate number 2, timepoint 18 hours
# [8] = 24 h, replicate number 1, timepoint 24 hours
# [9] = 24 h, replicate number 2, timepoint 24 hours
# [10] = 6 h, replicate number 2, timepoint 6 hours
# Note: unitless GR value; below 1 slowed growth and below 0 cell loss.
SMILES,Growth Rate (Fibroblast; [1]),Growth Rate (Fibroblast; [3]),Growth Rate (Fibroblast; [4]),Growth Rate (Fibroblast; [6]),Growth Rate (Fibroblast; [8]),Growth Rate (HEK-293T; [9]),Growth Rate (U2OS; [2]),Growth Rate (U2OS; [3]),Growth Rate (U2OS; [10]),Growth Rate (U2OS; [4]),Growth Rate (U2OS; [5]),Growth Rate (U2OS; [6]),Growth Rate (U2OS; [7]),Growth Rate (U2OS; [9]),Growth Rate (HEK-293T; [3]),Growth Rate (HEK-293T; [6]),Growth Rate (HEK-293T; [8]),Growth Rate (U2OS; [8]),Growth Rate (HEK-293T; [4]),Growth Rate (HEK-293T; [5]),also measured
N[C@@]1(C(=O)O)CC[C@H]2[C@H](C(=O)O)[C@H]21,-0.03,0.5,0.44,0.57,0.52,0.86,-1,0.86,0.76,0.67,0.94,0.7,1,0.97,–,–,–,–,–,–,Growth Rate (Fibroblast; [2]): 0.85; Growth Rate (Fibroblast; [5]): 0.63; Growth Rate (Fibroblast; [7]): 0.79; Growth Rate (Fibroblast; [9]): 0.35; Growth Rate (HEK-293T; [1]): 0.6; Growth Rate (HEK-293T; [2]): 0.94
CN[C@@H]1Cc2cccc3[nH]c(=O)n(c23)C1.O=C(O)/C=C\C(=O)O,–,-0.17,0.68,0.81,0.5,–,-1,–,–,–,–,0.71,0.85,0.98,0.74,0.9,0.79,0.89,–,–,Growth Rate (Fibroblast; [10]): 0.8; Growth Rate (HEK-293T; [10]): 0.88; Growth Rate (HEK-293T; [7]): 0.98; Growth Rate (U2OS; [1]): 0.11
CC(C)Oc1ccc(Cc2ccc(NC3=NCCN3)cc2)cc1,–,0.07,0.4,0.28,0.42,0.21,0.45,0.26,0.51,0.74,0.75,0.82,0.91,0.95,-0.2,0.16,0.24,0.84,0.03,0.1,Growth Rate (Fibroblast; [10]): -0.09; Growth Rate (Fibroblast; [5]): 0.19; Growth Rate (Fibroblast; [7]): 0.64; Growth Rate (Fibroblast; [9]): 0.46; Growth Rate (HEK-293T; [10]): -0.01; Growth Rate (HEK-293T; [7]): 0.27; Growth Rate (U2OS; [1]): -0.1
CN(C)CCCc1cc(C(=O)Nc2ccc(-c3ccncc3)cc2)ccc1O.Cl.Cl,0.85,0.34,0.34,0,-0.07,0.98,-0.87,–,–,–,–,–,–,–,0.98,0.69,0.67,–,0.69,0.93,Growth Rate (Fibroblast; [2]): 0.18; Growth Rate (Fibroblast; [10]): 0.16; Growth Rate (Fibroblast; [7]): 0.66; Growth Rate (Fibroblast; [9]): 0.69; Growth Rate (HEK-293T; [1]): 0.52; Growth Rate (HEK-293T; [2]): 0.49; Growth Rate (HEK-293T; [10]): 0.48; Growth Rate (U2OS; [1]): -0.09
CCCCC[C@H](O)/C=C/[C@H]1[C@H](O)CC(=O)[C@@H]1CCCCCCC(=O)O [ALPROSTADIL],-0.23,–,–,–,–,–,-1,-0.08,0.85,0.28,0.88,0.53,0.83,0.97,0.92,–,–,0.85,–,1,Growth Rate (Fibroblast; [2]): 0.17; Growth Rate (HEK-293T; [1]): -0.15; Growth Rate (HEK-293T; [2]): -0.14; Growth Rate (HEK-293T; [7]): 0.94; Growth Rate (U2OS; [1]): 0.29
Cl.Clc1cccc(Cl)c1NC1=NCCN1 [CLONIDINE HYDROCHLORIDE],0.82,0.94,–,–,0.9,0.63,0.55,0.87,0.91,–,–,1,–,–,0.49,0.59,0.85,–,0.74,0.54,Growth Rate (Fibroblast; [10]): 0.45; Growth Rate (Fibroblast; [5]): 0.46; Growth Rate (Fibroblast; [7]): 0.62; Growth Rate (Fibroblast; [9]): 0.47; Growth Rate (HEK-293T; [1]): 0.99; Growth Rate (HEK-293T; [2]): 0.43; Growth Rate (HEK-293T; [7]): 0.58
CC(C)N(CCCCOCC(=O)NS(C)(=O)=O)c1cnc(-c2ccccc2)c(-c2ccccc2)n1 [SELEXIPAG],0.56,0.5,0.75,0.76,0.48,–,-1,0.41,–,–,0.8,0.99,0.98,–,–,–,–,1,0.89,0.73,Growth Rate (Fibroblast; [2]): 0.34; Growth Rate (HEK-293T; [1]): 0.99; Growth Rate (HEK-293T; [2]): 0.73; Growth Rate (HEK-293T; [10]): 0.76; Growth Rate (U2OS; [1]): 0.21
Cc1cnc(CNCC2(F)CCN(C(=O)c3ccc(F)c(Cl)c3)CC2)nc1,0.31,0.38,0.81,0.86,0.5,–,0.21,0.35,0.86,0.56,0.96,0.81,0.78,0.94,–,1,0.91,0.79,–,–,Growth Rate (Fibroblast; [2]): 0.71; Growth Rate (Fibroblast; [5]): 0.62; Growth Rate (HEK-293T; [1]): 0.4; Growth Rate (HEK-293T; [2]): 0.21; Growth Rate (U2OS; [1]): -0.59
COc1ncc2cc(C(=O)Nc3cc(C(=O)NCc4cccc(Cl)c4)ccc3Cl)c(=O)[nH]c2n1,0.34,-0.08,0.48,0.51,0.76,0.93,–,0.36,0.28,–,0.69,0.51,0.67,0.69,0.48,0.64,0.66,0.75,0.55,0.83,Growth Rate (Fibroblast; [2]): 0.82; Growth Rate (Fibroblast; [10]): -0.3; Growth Rate (Fibroblast; [5]): 0.41; Growth Rate (HEK-293T; [10]): 0.93; Growth Rate (HEK-293T; [7]): 0.9
Br.CS(=O)(=O)Nc1c(O)ccc2c1CCCC2C1=NCCN1 (stereo unspecified),0.32,–,–,–,0.94,–,-1,-0.8,–,0.72,–,0.68,–,–,–,–,–,0.86,0.92,–,Growth Rate (Fibroblast; [2]): 0.39; Growth Rate (HEK-293T; [10]): 0.33
COc1cc(/C=C/C(=O)NCCn2c(C)cc3ccccc32)cc(OC)c1OC,0.86,0.79,0.87,0.66,0.67,0.76,-0.39,0.34,0.73,0.62,–,0.51,–,–,0.24,0.69,0.75,0.75,0.61,0.51,Growth Rate (Fibroblast; [10]): 0.39; Growth Rate (Fibroblast; [5]): 0.39; Growth Rate (Fibroblast; [7]): 0.71; Growth Rate (Fibroblast; [9]): 0.73; Growth Rate (HEK-293T; [10]): 0.36; Growth Rate (HEK-293T; [7]): 0.55; Growth Rate (U2OS; [1]): -0.71
CC(C)Oc1ccc(-c2nc(-c3cccc4c3CC[C@@H]4NCCO)no2)cc1C#N [OZANIMOD],–,0.57,0.12,0.03,-0.09,-0.29,–,–,-0.16,0.37,-0.05,0.41,0.01,0.04,-0.7,-0.32,-0.25,0.38,-0.42,-0.34,Growth Rate (Fibroblast; [10]): 0.42; Growth Rate (Fibroblast; [5]): -0.28; Growth Rate (Fibroblast; [7]): -0.49; Growth Rate (Fibroblast; [9]): -0.43; Growth Rate (HEK-293T; [10]): -0.68; Growth Rate (HEK-293T; [7]): -0.35
COc1ccc2c(c1)C(C(=O)N(Cc1ccc(N(C)C)cc1)c1ccc(C(C)C)cc1)CCC2.Cl (stereo unspecified),–,0.76,–,–,0.93,0.76,-1,0.25,–,0.93,0.84,0.73,0.81,0.79,–,0.43,0.52,–,0.27,0.46,Growth Rate (HEK-293T; [1]): 0.39; Growth Rate (HEK-293T; [2]): 0.72; Growth Rate (HEK-293T; [7]): 0.59; Growth Rate (U2OS; [1]): -0.58
